pIC50: −log10 of the molar value. Read-outs that look alike come from different tables or passages of the source.
Tests used:
[1] = biological target: panel of 63 kinases other than PLK1; test: kinase panel selectivity (63 kinases); assay type: biochemical
PLK1 = PLK1 (Homo sapiens, UniProt P53350); test: biochemical assays, panel of 296 kinases; details: including other PLK members
CYP1A2 = biological target: T1, CYP1A2 (Homo sapiens, UniProt P05177); test: CYP inhibition in human liver microsomes; assay type: in vitro ADME
T1 construct: was investigated using human liver microsomes; from tissue; host or cells: human liver microsomes
T1 sequence (P05177 1-516): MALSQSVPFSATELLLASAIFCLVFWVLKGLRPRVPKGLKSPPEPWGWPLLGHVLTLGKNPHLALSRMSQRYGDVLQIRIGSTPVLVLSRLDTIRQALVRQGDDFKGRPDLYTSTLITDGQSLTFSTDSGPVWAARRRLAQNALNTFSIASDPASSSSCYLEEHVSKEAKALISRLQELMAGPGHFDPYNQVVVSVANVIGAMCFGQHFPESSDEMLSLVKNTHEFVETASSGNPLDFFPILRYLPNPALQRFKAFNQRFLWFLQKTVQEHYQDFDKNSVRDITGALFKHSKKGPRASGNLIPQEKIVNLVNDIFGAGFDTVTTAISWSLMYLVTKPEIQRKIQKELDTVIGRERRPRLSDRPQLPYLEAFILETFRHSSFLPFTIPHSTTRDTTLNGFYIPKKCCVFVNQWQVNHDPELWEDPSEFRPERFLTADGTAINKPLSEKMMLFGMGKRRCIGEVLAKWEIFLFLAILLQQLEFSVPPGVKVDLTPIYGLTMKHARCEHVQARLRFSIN
Description: (§1) In Table 1, IC50 is shown as mean±SEM (standard error of mean).

[2] = tested on: CYP2C8, CYP2C9, CYP2C19, CYP2D6, CYP3A4; test: CYP inhibition in human liver microsomes, summary over isoforms; assay type: in vitro ADME; details: range over isoforms
Description: as §1

AML cell lines = test: cell proliferation in AML cell lines; assay type: cell-based
[3] = tested on: HT29 human colon adenocarcinoma xenografts; test: HT29 xenograft, combination with irinotecan; assay type: in vivo; details: in combination with irinotecan
[4] = tested on: disseminated model of AML; test: disseminated model of AML, combination with cytarabine; assay type: in vivo; details: in combination therapy with cytarabine
[5] = pharmacologic parameters of onvansertib; assay type: in vivo
[6] = concentration for anti-tumoral activity in mice; assay type: in vivo
Description: as §1

patients with mCRPC = test: onvansertib plus abiraterone in patients with mCRPC (NCT03414034); assay type: in vivo, human
SUM159 xenografts = test: SUM159 mouse xenograft; assay type: in vivo; details: at 21 days; onvansertib 120 mg/Kg P.O. day 1 and 2 weekly or paclitaxel 10 mg/Kg I.P. day 1 weekly
clinical = details: human, in vivo, po
[7] = tested on: metastatic breast cancer patients; details: cited from earlier work
patients with AML [8] = details: intravenously in combination with LDAC; treatment-naïve AML; cited from earlier work
patients with AML [9] = details: in combination with LDAC; cited from earlier work
[10] = tested on: patients with metastatic TNBC; details: with chemotherapy vs chemotherapy and placebo; tumors strongly positive for PD-L1 (CPS>10); cited from earlier work

Chain of PLK1 (P53350 whole entry): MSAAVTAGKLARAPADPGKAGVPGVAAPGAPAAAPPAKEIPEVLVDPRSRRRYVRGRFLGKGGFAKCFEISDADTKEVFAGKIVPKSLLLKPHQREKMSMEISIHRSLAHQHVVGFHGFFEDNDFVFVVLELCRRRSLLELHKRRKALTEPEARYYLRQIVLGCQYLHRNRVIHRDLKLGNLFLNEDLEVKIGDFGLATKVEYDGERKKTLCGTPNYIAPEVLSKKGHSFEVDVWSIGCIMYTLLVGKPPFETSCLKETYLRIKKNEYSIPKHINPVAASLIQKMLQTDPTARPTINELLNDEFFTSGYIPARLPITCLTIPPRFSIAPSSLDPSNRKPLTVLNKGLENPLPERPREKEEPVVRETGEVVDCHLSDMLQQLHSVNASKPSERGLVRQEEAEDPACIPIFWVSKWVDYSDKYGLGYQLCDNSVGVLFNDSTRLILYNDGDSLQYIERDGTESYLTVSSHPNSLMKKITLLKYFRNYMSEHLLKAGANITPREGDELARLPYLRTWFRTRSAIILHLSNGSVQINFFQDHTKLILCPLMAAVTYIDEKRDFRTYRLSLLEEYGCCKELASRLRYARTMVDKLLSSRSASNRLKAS

**Q.** Which results are given for `CN1CCN(c2ccc(OC(F)(F)F)c(Nc3ncc4c(n3)-c3c(c(C(N)=O)nn3CCO)CC4)c2)CC1` [onvansertib, 1-(2-hydroxyethyl)-8-{[5-(4-methylpiperazin-1-yl)-2-(trifluoromethoxy)phenyl]amino}-4,5-dihydro-1H-pyrazolo[4,3-h]quinazoline-3-carboxamide]?
**A.** pIC50 [1]: < 6.30; specificity for PLK1 among a panel of 296 kinases (PLK1): high specificity; inhibitory effects against CYP1A2 (CYP1A2): No significant inhibitory effects; pIC50 [2]: 4.18 to 4.70; inhibition of cell proliferation (AML cell lines): nanomolar concentrations; tumor regression compared to each agent alone [3]: enhanced tumor regression; survival of animals [4]: prolonged survival; half-life ([5]; in vivo): 24 h; oral bioavailability ([5]; rodent and nonrodent species): good oral bioavailability; concentrations relevant to achieve significant anti-tumoral activity [6]: ~1 µM; evaluable patients who met the primary efficacy endpoint (patients with mCRPC; 12 mg/m^2, 14+7 regimen with abiraterone, 5 evaluable): 60%; hematological toxicities reported (patients with mCRPC; 12 mg/m^2 QD 14+7 regimen with abiraterone QD, 9 patients): no Grade 2 or higher hematological toxicities; evaluable patients who met the primary efficacy endpoint (patients with mCRPC; 18 mg/m^2, 5+9 regimen, 10 evaluable): 30%; tumor growth inhibition, difference compared to controls (SUM159 xenografts): −0.406; half-life (clinical): 20 to 30 h

**Q.** For `CC(=O)O[C@H]1C(=O)[C@@]2(C)[C@H]([C@H](OC(=O)c3ccccc3)[C@]3(O)C[C@H](OC(=O)[C@H](O)[C@@H](NC(=O)c4ccccc4)c4ccccc4)C(C)=C1C3(C)C)[C@]1(OC(C)=O)CO[C@@H]1C[C@@H]2O` [paclitaxel, 5β,20-Epoxy-1,2α,4,7β,10β,13α-hexahydroxytax-11-en-9-one 4,10-diacetate 2-benzoate 13-ester with (2R,3S)-N-benzoyl-3-phenylisoserine], which “tumor growth inhibition, difference compared to controls” value (SUM159 xenografts) is on record?
**A.** −0.337

**Q.** What about the “Grade 3 anemia” value ([7]; 80 mg/m^2 weekly, 212 patients) of the same molecule?
**A.** 9%

**Q.** What about the “Grade 3 or 4 neutropenia” value ([7]; 80 mg/m^2 weekly, 212 patients) of the same molecule?
**A.** 15%

**Q.** And the responses ([7]; 45 assessable patients with prior taxane therapy)?
**A.** 15.6%

**Q.** What about the responses ([7]; 131 assessable patients with prior anthracycline therapy) of the same molecule?
**A.** 17.6%

**Q.** And the overall response rate ([7]; 177 assessable patients)?
**A.** 21.5%

**Q.** What about the “median time to progression” value ([7]; assessable patients) of the same molecule?
**A.** 142 days

**Q.** What about the “grade 3 neuropathy” value ([7]; in vivo) of the same molecule?
**A.** 9%

**Q.** What about the “grade 4 neuropathy” value ([7]; in vivo) of the same molecule?
**A.** no patient

**Q.** And the “median number of courses of therapy until development of grade 2 or 3 neuropathy” value ([7]; in vivo)?
**A.** five

**Q.** And the “median time to progression” value ([7]; no prior chemotherapy for metastatic disease)?
**A.** 174 days

**Q.** What about the “median time to progression” value ([7]; one prior regimen) of the same molecule?
**A.** 140 days

**Q.** And the “median time to progression” value ([7]; two prior regimens)?
**A.** 85 days

**Q.** For `CC[C@@H]1C(=O)N(C)c2cnc(Nc3ccc(C(=O)N[C@H]4CC[C@H](N5CCN(CC6CC6)CC5)CC4)cc3OC)nc2N1C(C)C` [volasertib], which “OS compared with LDAC alone” value (patients with AML [8]) is on record?
**A.** significant increase in OS

**Q.** And the “benefit of the combination” value (patients with AML [9])?
**A.** no benefit

**Q.** And the “risk of severe infections” value (patients with AML [9])?
**A.** increased risk of severe infections

**Q.** With “Pembrolizumab: a monoclonal antibody directed against the PD-1 receptor” as the molecule, how does the “reduction of the risk of death” value [10] read?
**A.** 27%

Source: patent US20260076970A1, “CANCER TREATMENT USING MTDP INHIBITORS AND PLK1 INHIBITORS” (Cardiff Oncology, Inc., priority 2022, published 2026)
